Assay results taken from patent publication US5039806A, “Novel pharmacologically active compound pyridyl methylsulfinyl benzimidazole” (AB Hassle, priority 1983, dated 1991).

System: gastric acid secretion in conscious dog
Experiment: Inhibiting effect in vivo on gastric acid secretion in conscious dog (gastric fistula, histamine-stimulated)
Details: intraduodenal (I.D.) dose 8 μmol/kg, free base in 0.5% Methocel
Description: II. Inhibiting effect in vivo on gastric acid secretion in conscious dog
Chronic gastric fistula dogs were used. These dogs have been surgically provided with a gastric cannula in the stomach and a duodenal fistula used for direct intraduodenal administration of test compounds. Following a 4 weeks' recovery period after surgery, tests were performed once a week on each dog. Food and water were withdrawn 18 hours before each test.
Gastric acid secretion was induced by continuous infusion of histamine at individual doses (100-300 nmol/kg,h), resulting in submaximal secretion of gastric acid. At least 2 hours after onset of stimulation, when the gastric acid secretion had reached a steady level, the test compounds in the form of free base suspended in 0.5% Methocel® (90 HG, 15.000, Dow Chem. Corp.), were given intraduodenally at doses from 1 to 8 μmol/kg. The gastric juice was collected by free flow from the gastric cannula in consecutive 30 minutes samples for 3 hours. The samples were titrated to pH 7.0 with 0.1 M NaOH using a Radiometer automatic titrator and the acid output was calculated.
The percent inhibition of acid secretion was calculated by comparing in each dog the acid output in the tests to the acid output in control tests when only the vehicle was given.

| SMILES | % INHIB (peak inhibitory effect on acid secretion) [%] |
| --- | --- |
| COc1c(C)cnc(CSc2nc3cc4ccccc4cc3[nH]2)c1C [Example 84] | 85 |
| COc1c(C)cnc(CSc2nc3cc(SC)ccc3[nH]2)c1C [Example 109] | 60 |
